Laboratory results: US10004701B2, “Methods and compositions for treating infection” (UNIVERSITY OF ROCHESTER, priority 2012, dated 2018)
Structures can show the parent of a compound that is named as a salt. Where two headings read alike, the source gives them in different places.

How the values were obtained:
Experiment in all cases: AK assay 384-well format, Prestwick library screening
[1] = tested on: E. cloacae; assay type: cell-based, Enterobacter cloacae; conditions: 50 μM final drug concentration; for fold induction at 50 µM: Enterobacter cloacae, 3 h
[2] = tested on: K. pneumoniae; assay type: cell-based, Klebsiella pneumoniae; conditions: 50 μM final drug concentration; for fold induction at 50 µM: Klebsiella pneumoniae, 3 h
[3] = tested on: E. coli; assay type: cell-based, Escherichia coli; conditions: 50 μM final drug concentration; for fold induction at 50 µM: Escherichia coli, 3 h
[4] = tested on: P. aeruginosa; assay type: cell-based, Pseudomonas aeruginosa; conditions: 50 μM final drug concentration; for fold induction at 50 µM: Pseudomonas aeruginosa, 3 h
[5] = tested on: E. faecium; assay type: cell-based, Enterococcus faecium; conditions: 50 μM final drug concentration; for fold induction at 50 µM: Enterococcus faecium, 3 h
[6] = tested on: A. baumannii strain 98-37-09; assay type: cell-based, Acinetobacter baumannii; conditions: 50 μM final drug concentration; for fold induction at 50 µM: Acinetobacter baumannii, 983709, 3 h
[7] = tested on: S. aureus strain USA300-0114; assay type: cell-based, Staphylococcus aureus; conditions: 50 μM final drug concentration; for fold induction at 50 µM: Staphylococcus aureus, USA300, 3 h
[8] = cutoff for positive-scoring molecules 3-fold increase, read-out: AK-based Prestwick Library Screening Results, E. cloacae (fold increase in extracellular AK activity)
[9] = cutoff for positive-scoring molecules 3-fold increase, read-out: AK-based Prestwick Library Screening Results, K. pneumoniae (fold increase in extracellular AK activity)
[10] = cutoff for positive-scoring molecules 3-fold increase, read-out: AK-based Prestwick Library Screening Results, E. coli (fold increase in extracellular AK activity)
[11] = cutoff for positive-scoring molecules 3-fold increase, read-out: AK-based Prestwick Library Screening Results, P. aeruginosa (fold increase in extracellular AK activity)
[12] = cutoff for positive-scoring molecules 3-fold increase, read-out: AK-based Prestwick Library Screening Results, E. faecium (fold increase in extracellular AK activity)
[13] = cutoff for positive-scoring molecules 3-fold increase, read-out: AK-based Prestwick Library Screening Results, A. baumannii (fold increase in extracellular AK activity)
[14] = cutoff for positive-scoring molecules 3-fold increase, read-out: AK-based Prestwick Library Screening Results, S. aureus (fold increase in extracellular AK activity)
[15] = planktonic E. cloacae, 384-well, cutoff for positive-scoring molecules 3-fold increase, read-out: AK-based Prestwick Library Screening Results: E. cloacae (increase in extracellular AK activity)
[16] = planktonic K. pneumoniae, 384-well, cutoff for positive-scoring molecules 3-fold increase, read-out: AK-based Prestwick Library Screening Results: K. pneumoniae (increase in extracellular AK activity)
[17] = planktonic E. coli, 384-well, cutoff for positive-scoring molecules 3-fold increase, read-out: AK-based Prestwick Library Screening Results: E. coli (increase in extracellular AK activity)
[18] = planktonic P. aeruginosa, 384-well, cutoff for positive-scoring molecules 3-fold increase, read-out: AK-based Prestwick Library Screening Results: P. aeruginosa (increase in extracellular AK activity)
[19] = planktonic E. faecium, 384-well, cutoff for positive-scoring molecules 3-fold increase, read-out: AK-based Prestwick Library Screening Results: E. faecium (increase in extracellular AK activity)
[20] = planktonic A. baumannii, 384-well, cutoff for positive-scoring molecules 3-fold increase, read-out: AK-based Prestwick Library Screening Results: A. baumannii (increase in extracellular AK activity)
[21] = planktonic S. aureus, 384-well, cutoff for positive-scoring molecules 3-fold increase, read-out: AK-based Prestwick Library Screening Results: S. aureus (increase in extracellular AK activity)
[22] = planktonic, cutoff for positive 3-fold increase, read-out: AK-based Prestwick Library Screening Results, E. cloacae (fold increase in extracellular AK activity)
[23] = planktonic, cutoff for positive 3-fold increase, read-out: AK-based Prestwick Library Screening Results, K. pneumoniae (fold increase in extracellular AK activity)
[24] = planktonic, cutoff for positive 3-fold increase, read-out: AK-based Prestwick Library Screening Results, P. aeruginosa (fold increase in extracellular AK activity)
[25] = planktonic, cutoff for positive 3-fold increase, read-out: AK-based Prestwick Library Screening Results, E. faecium (fold increase in extracellular AK activity)
[26] = planktonic, cutoff for positive 3-fold increase, read-out: AK-based Prestwick Library Screening Results, A. baumannii (fold increase in extracellular AK activity)
[27] = planktonic, cutoff for positive 3-fold increase, read-out: AK-based Prestwick Library Screening Results, S. aureus (fold increase in extracellular AK activity)
[28] = 384-well format, cutoff for positive-scoring molecules 3-fold increase

What does the source list for `CN(C)CCCO[C@@H]1[C@H]2OC(C)(C)O[C@H]2O[C@@H]1[C@H](O)CO` [Amiprilose hydrochloride]?
fold induction at 50 µM [1, 8]: 1.5; fold induction at 50 µM [2, 9]: 0.9; fold induction at 50 µM [3, 10]: 1.3; fold induction at 50 µM [4, 11]: 1.1; fold induction at 50 µM [5, 12]: 1.1; fold induction at 50 µM [6, 13]: 1.2; fold induction at 50 µM [7, 14]: 1.3

For `CO[C@]12C[C@@H](COC(=O)c3cncc(Br)c3)CN(C)[C@@H]1Cc1cn(C)c3cccc2c13` [Nicergoline], which fold induction at 50 µM [1, 15] is on record?
Its fold induction at 50 µM is 1.2.

And the fold induction at 50 µM [2, 16]?
Its fold induction at 50 µM is 1.

And the fold induction at 50 µM [3, 17]?
Its fold induction at 50 µM is 1.3.

And the fold induction at 50 µM [4, 18]?
The fold induction at 50 µM was 1.2.

And the fold induction at 50 µM [5, 19]?
The fold induction at 50 µM was 1.

And the fold induction at 50 µM [6, 20]?
Its fold induction at 50 µM is 1.4.

What about the fold induction at 50 µM [7, 21] of the same compound?
Its fold induction at 50 µM is 1.4.

Which results are given for `CC(=O)N1CCN(c2ccc(OCC3COC(Cn4ccnc4)(c4ccc(Cl)cc4Cl)O3)cc2)CC1` (stereo not shown) [Ketoconazole]?
fold induction at 50 µM [1, 22]: 1.5; fold induction at 50 µM [2, 23]: 1.2; fold induction at 50 µM ([3]; planktonic, […], read-out: AK-based Prestwick Library Screening Results, E. coli (fold increase in extracellular AK activity)): 1.3; fold induction at 50 µM [4, 24]: 1.1; fold induction at 50 µM [5, 25]: 0.9; fold induction at 50 µM [6, 26]: 1.5; fold induction at 50 µM [7, 27]: 1.2

`CN[C@@H]1[C@@H](O[C@H]2O[C@H](CO)[C@@H](N)[C@H](O)[C@H]2O)OC2C[C@@H](N)[C@@H](O[C@H]3[C@H](O)[C@@H](O)[C@H](N)C[C@@H]3N)OC2[C@@H]1O` (stereo partly shown) [Apramycin] was tested. Which fold induction at 50 µM ([1]; planktonic E. cloacae, positive cutoff 3-fold increase, read-out: AK-based Prestwick library screening result, E. cloacae (fold increase in extracellular AK activity)) did it give?
The fold induction at 50 µM was 1.4.

What about the fold induction at 50 µM ([2]; planktonic K. pneumoniae, positive cutoff 3-fold increase, read-out: AK-based Prestwick library screening result, K. pneumoniae (fold increase in extracellular AK activity)) of the same compound?
The fold induction at 50 µM was 0.8.

What about the fold induction at 50 µM ([3]; planktonic E. coli, positive cutoff 3-fold increase, read-out: AK-based Prestwick library screening result, E. coli (fold increase in extracellular AK activity)) of the same compound?
Its fold induction at 50 µM is 1.2.

What about the fold induction at 50 µM ([4]; planktonic P. aeruginosa, positive cutoff 3-fold increase, read-out: AK-based Prestwick library screening result, P. aeruginosa (fold increase in extracellular AK activity)) of the same compound?
The fold induction at 50 µM was 1.1.

And the fold induction at 50 µM ([5]; planktonic E. faecium, positive cutoff 3-fold increase, read-out: AK-based Prestwick library screening result, E. faecium (fold increase in extracellular AK activity))?
The fold induction at 50 µM was 1.

And the fold induction at 50 µM ([6]; planktonic A. baumannii, positive cutoff 3-fold increase, read-out: AK-based Prestwick library screening result, A. baumannii (fold increase in extracellular AK activity))?
Its fold induction at 50 µM is 1.

And the fold induction at 50 µM ([7]; planktonic S. aureus, positive cutoff 3-fold increase, read-out: AK-based Prestwick library screening result, S. aureus (fold increase in extracellular AK activity))?
Its fold induction at 50 µM is 0.9.

With `C=CC1=C(C(=O)O)N2C(=O)[C@@H](NC(=O)/C(=N\OCC(=O)O)c3csc(N)n3)[C@H]2SC1` [Cefixime] as the compound, how does the fold induction at 50 µM [1, 22] read?
The fold induction at 50 µM was 21.9.

And the fold induction at 50 µM [2, 23]?
The fold induction at 50 µM was 4.6.

And the fold induction at 50 µM ([3]; planktonic, cutoff for positive 3-fold increase, read-out: AK-based Prestwick Library Screening Results, E. coli (fold increase in extracellular AK activity))?
Its fold induction at 50 µM is 18.6.

And the fold induction at 50 µM [4, 24]?
Its fold induction at 50 µM is 11.7.

And the fold induction at 50 µM [5, 25]?
The fold induction at 50 µM was 1.1.

What about the fold induction at 50 µM [6, 26] of the same compound?
The fold induction at 50 µM was 1.8.

And the fold induction at 50 µM [7, 27]?
The fold induction at 50 µM was 1.2.

Alverine citrate salt was tested. Which “AK-based Prestwick Library Screening Results, E. cloacae (increase in extracellular AK activity)” value [1, 28] did it give?
The value was 0.9.

What about the “AK-based Prestwick Library Screening Results, K. pneumoniae (increase in extracellular AK activity)” value [2, 28] of the same compound?
Its value is 0.7.

And the “AK-based Prestwick Library Screening Results, E. coli (increase in extracellular AK activity)” value [3, 28]?
The value was 0.9.

And the “AK-based Prestwick Library Screening Results, P. aeruginosa (increase in extracellular AK activity)” value [4, 28]?
The value was 0.8.

And the “AK-based Prestwick Library Screening Results, E. faecium (increase in extracellular AK activity)” value [5, 28]?
The value was 0.9.

What about the “AK-based Prestwick Library Screening Results, A. baumannii (increase in extracellular AK activity)” value [6, 28] of the same compound?
The value was 0.9.

And the “AK-based Prestwick Library Screening Results, S. aureus (increase in extracellular AK activity)” value [7, 28]?
Its value is 0.7.

Which results are given for `C[C@H](CCC(=O)O)[C@H]1CC[C@H]2[C@@H]3CC[C@@H]4C[C@H](O)CC[C@]4(C)[C@H]3CC[C@]12C` [Lithocholic acid]?
fold induction at 50 µM [1, 8]: 1.7; fold induction at 50 µM [2, 9]: 0.8; fold induction at 50 µM [3, 10]: 0.8; fold induction at 50 µM [4, 11]: 1; fold induction at 50 µM [5, 12]: 1.2; fold induction at 50 µM [6, 13]: 1; fold induction at 50 µM [7, 14]: 1.1

With `C[N+]1(C)[C@@H]2CC[C@H]1C[C@@H](OC(=O)C(CO)c1ccccc1)C2` (stereo partly shown) [Methylatropine nitrate] as the compound, how does the fold induction at 50 µM ([1]; planktonic, cutoff for positive-scoring molecules 3-fold increase, read-out: AK-based Prestwick Library Screening Results, E. cloacae (fold increase in extracellular AK activity)) read?
Its fold induction at 50 µM is 0.8.

What about the fold induction at 50 µM ([2]; planktonic, cutoff for positive-scoring molecules 3-fold increase, read-out: AK-based Prestwick Library Screening Results, K. pneumoniae (fold increase in extracellular AK activity)) of the same compound?
The fold induction at 50 µM was 0.6.

What about the fold induction at 50 µM ([3]; planktonic, cutoff for positive-scoring molecules 3-fold increase, read-out: AK-based Prestwick Library Screening Results, E. coli (fold increase in extracellular AK activity)) of the same compound?
The fold induction at 50 µM was 0.7.

What about the fold induction at 50 µM ([4]; planktonic, cutoff for positive-scoring molecules 3-fold increase, read-out: AK-based Prestwick Library Screening Results, P. aeruginosa (fold increase in extracellular AK activity)) of the same compound?
The fold induction at 50 µM was 0.7.

And the fold induction at 50 µM ([5]; planktonic, cutoff for positive-scoring molecules 3-fold increase, read-out: AK-based Prestwick Library Screening Results, E. faecium (fold increase in extracellular AK activity))?
Its fold induction at 50 µM is 1.

What about the fold induction at 50 µM ([6]; planktonic, cutoff for positive-scoring molecules 3-fold increase, read-out: AK-based Prestwick Library Screening Results, A. baumannii (fold increase in extracellular AK activity)) of the same compound?
The fold induction at 50 µM was 0.7.

What about the fold induction at 50 µM ([7]; planktonic, cutoff for positive-scoring molecules 3-fold increase, read-out: AK-based Prestwick Library Screening Results, S. aureus (fold increase in extracellular AK activity)) of the same compound?
The fold induction at 50 µM was 0.6.

For `CCc1cccc2c3c([nH]c12)C(CC)(CC(=O)O)OCC3` (stereo not shown) [Etodolac], which fold induction at 50 µM [1, 15] is on record?
The fold induction at 50 µM was 1.2.

What about the fold induction at 50 µM [2, 16] of the same compound?
Its fold induction at 50 µM is 1.3.

What about the fold induction at 50 µM ([3]; planktonic E. coli, 384-well, […], read-out: AK-based Prestwick Library Screening Results: E. coli (increase in extracellular AK activity)) of the same compound?
Its fold induction at 50 µM is 1.2.

And the fold induction at 50 µM [4, 18]?
Its fold induction at 50 µM is 1.5.

And the fold induction at 50 µM [5, 19]?
Its fold induction at 50 µM is 1.1.

And the fold induction at 50 µM [6, 20]?
The fold induction at 50 µM was 1.4.

And the fold induction at 50 µM [7, 21]?
The fold induction at 50 µM was 1.

How did the fold induction at 50 µM [1, 15] turn out when `COc1ccc(CCN2CCC(Nc3nc4ccccc4n3Cc3ccc(F)cc3)CC2)cc1` [Astemizole] was run?
The fold induction at 50 µM was 1.6.

What about the fold induction at 50 µM [2, 16] of the same compound?
Its fold induction at 50 µM is 1.1.

What about the fold induction at 50 µM [3, 17] of the same compound?
Its fold induction at 50 µM is 1.3.

And the fold induction at 50 µM [4, 18]?
Its fold induction at 50 µM is 1.

What about the fold induction at 50 µM [5, 19] of the same compound?
The fold induction at 50 µM was 1.

And the fold induction at 50 µM [6, 20]?
The fold induction at 50 µM was 1.6.

And the fold induction at 50 µM [7, 21]?
Its fold induction at 50 µM is 2.2.
